# Data from patent publication US7037693B2, “Muskmelon (Cucumis melo) hydroperoxide lyase and uses thereof” (Vanderbilt University, priority 2000, dated 2006).
# “And” between values parts separate entries of the source, which are not always exact repeats. Identical values can stand only once.
# Legend:
# [1] = target: melon 9-hydroperoxide lyase (9-HPL) (Cucumis melo, UniProt A0A1S3BZK9); assay: Kinetics of melon 9-HPL with fatty acid hydroperoxide substrates (spectrophotometric assay, decrease in absorbance at 235 nm); format: biochemical; details: relative to 9-hydroperoxylinolenic acid; 'preferably approximately' value
# Procedure: The resulting pellet of cells was resuspended in Tris-acetate buffer (0.1 M, pH 7.6) containing sucrose (0.5 M), EDTA (0.5 mM) and lysozyme (1 mg/ml). After 30 min on ice, the mixture was centrifuged as before to obtain a pellet of spheroplastes. These were resuspended in potassium phosphate buffer (0.1 M, pH 7.6) containing magnesium acetate (6 mM), glycerol (20% v/v) and DTT (0.1 mM) and the mixture left for 10 min at −80° C. Following this, a protease inhibitor was added (PMSF, 1 mM) and the cells sonicated (2×30 seconds). […] Compared to the control protein produced from vector alone with no cDNA insert, there was less protein, but the bacterial lysates of each gave easily measurable catalytic activity. By monitoring the disappearance of the UV-235 nm absorbance of the fatty acid hydroperoxide substrates, less than 1 μl (<10 μg crude protein) of the suspended and lysed bacterial pellets were required in order to observe reaction in a 1 ml UV cuvette. Measurement was made using the spectrophotometric assay (decrease in absorbance at 235 nm) and the initial rates of reaction. The turnover number of the purified 9-HPL enzyme (number of product molecules formed per molecule of enzyme) using 9S-hydroperoxylinoleic acid as substrate was calculated from the known concentration of the enzyme (measured at the Soret maximum at 416 nm, and using a molar extinction coefficient of 100,000), and the measured rates of change of substrate concentration (using the molar extinction coefficient of 23,000 at 235 nm of the conjugated diene).
# [2] = substrate: CC/C=C\C[C@@H](/C=C/C=C\CCCCCCCC(=O)O)OO; assay: as above; format: biochemical, Cucumis melo; details: 95% confidence limits given; pH 7.6
# Procedure: (§1) The resulting pellet of cells was resuspended in Tris-acetate buffer (0.1 M, pH 7.6) containing sucrose (0.5 M), EDTA (0.5 mM) and lysozyme (1 mg/ml). After 30 min on ice, the mixture was centrifuged as before to obtain a pellet of spheroplastes. These were resuspended in potassium phosphate buffer (0.1 M, pH 7.6) containing magnesium acetate (6 mM), glycerol (20% v/v) and DTT (0.1 mM) and the mixture left for 10 min at −80° C. Following this, a protease inhibitor was added (PMSF, 1 mM) and the cells sonicated (2×30 seconds). […] By monitoring the disappearance of the UV-235 nm absorbance of the fatty acid hydroperoxide substrates, less than 1 μl (<10 μg crude protein) of the suspended and lysed bacterial pellets were required in order to observe reaction in a 1 ml UV cuvette. Measurement was made using the spectrophotometric assay (decrease in absorbance at 235 nm) and the initial rates of reaction. The turnover number of the purified 9-HPL enzyme (number of product molecules formed per molecule of enzyme) using 9S-hydroperoxylinoleic acid as substrate was calculated from the known concentration of the enzyme (measured at the Soret maximum at 416 nm, and using a molar extinction coefficient of 100,000), and the measured rates of change of substrate concentration (using the molar extinction coefficient of 23,000 at 235 nm of the conjugated diene).
# [3] = substrate: CCCCC/C=C\C=C\[C@H](CCCCCCCC(=O)O)OO; assay: as above; format: biochemical, Cucumis melo; details: 95% confidence limits given; pH 7.6
# Procedure: as §1
# [4] = pH dependence of the activity of the lyase; format: biochemical, Cucumis melo
molecule,measurement,setting,value
"CCCCC/C=C\C=C\[C@H](CCCCCCCC(=O)O)OO [9-hydroperoxylinoleic acid, (9S, 10E, 12Z) 9-hydroperoxyoctadeca-10,12-dienoic acid]",Km as percentage of the Km of the lyase for 9-hydroperoxylinolenic acid,[1],approximately 54%
same,Vmax as percentage of the Vmax of the lyase for 9-hydroperoxylinolenic acid,[1],approximately 55%
"CC/C=C\C[C@@H](/C=C/C=C\CCCCCCCC(=O)O)OO [13-hydroperoxylinolenic acid, (9Z, 11E, 13S, 15Z) 13-hydroperoxyoctadeca-9,11,15-trienoic acid]",Vmax as percentage of the Vmax of the lyase for 9-hydroperoxylinolenic acid,[1],approximately 22%
"CCCCC[C@@H](/C=C/C=C\CCCCCCCC(=O)O)OO [13-hydroperoxylinoleic acid, (9Z,11E,13S)13-hydroperoxyoctadeca-9,11-dienoic acid]",Vmax as percentage of the Vmax of the lyase for 9-hydroperoxylinolenic acid,[1],approximately 30%
melon 9-hydroperoxide lyase (9-HPL) (Cucumis melo) (protein) MATPSSSSPELPLKPIPGGYGFPFLGPIKDRYDYFYFQGRDEFFRSRITKYNSTVFRANMPPGPFISSDSRVVVLLDALSFPILFDTAKVEKRNILDGTYMPSLSFTGNIRTCAYLDPSETEHSVLKRLFLSFLASRHDRFIPLFRSSLSEMFVKLEDKLSEKKKIADFNSISDSMSFDYVFRLLSDGTPDSKLAAEGPGMFDLWLVFQLAPLASIGLPKIFSVFEDLVIHTIPLPFFPVKSGYRKLYEAFYSSSGSFLDEAEKQGIDREKACHNLVFLAGFNAYGGMKVLFPTLLKWVGTAGEDLHRKLAEEVRTTVKEEGGLTFSALEKMSLLKSVVYEALRIEPPVPFQYGKAKEDIVIQSHDSSFKIKKGETIFGYQPFATKDPKIFKDSEKFVGDRFVGEEGEKLLKYVYWSNERETVEPTAENKQCPGKNLVVLIGRIMVVEFFLRYDTFTVEVADLPLGPAVKFKSLTRATDMV,Km,[2],50 µM and 51 µM
same,Km,[3],192 µM
"lyase: fatty acid 9-hydroperoxide lyase of muskmelon (Cucumis melo), SEQ ID NO:7, recombinantly expressed in E. coli (protein, Cucumis melo) MATPSSSSPELPLKPIPGGYGFPFLGPIKDRYDYFYFQGRDEFFRSRITKYNSTVFRANMPPGPFISSDSRVVVLLDALSFPILFDTAKVEKRNILDGTYMPSLSFTGNIRTCAYLDPSETEHSVLKRLFLSFLASRHDRFIPLFRSSLSEMFVKLEDKLSEKKKIADFNSISDSMSFDYVFRLLSDGTPDSKLAAEGPGMFDLWLVFQLAPLASIGLPKIFSVFEDLVIHTIPLPFFPVKSGYRKLYEAFYSSSGSFLDEAEKQGIDREKACHNLVFLAGFNAYGGMKVLFPTLLKWVGTAGEDLHRKLAEEVRTTVKEEGGLTFSALEKMSLLKSVVYEALRIEPPVPFQYGKAKEDIVIQSHDSSFKIKKGETIFGYQPFATKDPKIFKDSEKFVGDRFVGEEGEKLLKYVYWSNERETVEPTAENKQCPGKNLVVLIGRIMVVEFFLRYDTFTVEVADLPLGPAVKFKSLTRATDMV",activity as percentage of maximal activity,[4]; pH 5.0,approximately 25%
same,activity as percentage of maximal activity,[4]; pH 9.0,approximately 15%
